Measured values reported in ChEMBL document CHEMBL5230122, “Natural products and other inhibitors of F1FO ATP synthase” (Eur J Med Chem, 2020).
Square brackets hold non-standard residues; d marks the D form. Peptide text beside a SMILES is read from it. * marks the point of attachment. X4 = CC(C)C[C@@H](C[N+]1=C2CCCN2CCC1)N*; Pip = O=C(O)[C@@H]1CCCCN1; Iva = CC[C@](C)(N)C(=O)O; Aib = CC(C)(N)C(=O)O; βAla = NCCC(=O)O

Experiments:
[1] = test system: HL-60; assay: Antiproliferative activity against human HL-60 cells assessed as reduction in cell viability incubated for 48 hrs by MTT assay; assay type: functional, cell-based; details: HL-60, 48 h
[2] = test system: A549; assay: Antiproliferative activity against human A549 cells assessed as reduction in cell viability incubated for 48 hrs by MTT assay; assay type: functional, cell-based; details: A549, 48 h
[3] = test system: SMMC-7721; assay: Antiproliferative activity against human SMMC-7721 cells assessed as reduction in cell viability incubated for 48 hrs by MTT assay; assay type: functional, cell-based; details: SMMC-7721, 48 h
[4] = test system: MCF7; assay: Antiproliferative activity against human MCF7 cells assessed as reduction in cell viability incubated for 48 hrs by MTT assay; assay type: functional, cell-based; details: MCF7, 48 h
[5] = test system: SW480; assay: Antiproliferative activity against human SW480 cells assessed as reduction in cell viability incubated for 48 hrs by MTT assay; assay type: functional, cell-based; details: SW480, 48 h
[6] = test system: MDA-MB-231; assay: Antiproliferative activity against human MDA-MB-231 cells assessed as reduction in cell viability incubated for 48 hrs by MTT assay; assay type: functional, cell-based; details: MDA-MB-231, 48 h
[7] = test system: NCI-H292; assay: Anticancer activity against human NCI-H292 cells assessed as reduction in cell proliferation incubated for 48 hrs by Calcein AM and Pluronic F-127 staining based fluorescence plate reader analysis; assay type: functional; details: NCI-H292, 48 h
[8] = species: Bos taurus; assay: Inhibition of bovine F0F1-ATPase at 50 uM
[9] = Antiproliferative activity against human Keratinocyte assessed as inhibition of cell proliferation incubated for 2 days by Beckman Coulter analysis; assay type: functional, cell-based; details: 48 h
[10] = test system: HCT-116; assay: Antitumor activity against human HCT-116 cells assessed as reduction in cell viability incubated for 72 hrs by MTT assay; assay type: functional, cell-based; details: HCT-116, 72 h
[11] = test system: K562; assay: Antitumor activity against human K562 cells assessed as reduction in cell viability incubated for 72 hrs by MTT assay; assay type: functional, cell-based; details: K562, 72 h
[12] = test system: SNU-398; assay: Anticancer activity against human SNU-398 cells expressing high level of SALL4 assessed as reduction in cell viability incubated for 72 hrs by CellTiter-Glo assay; assay type: functional, cell-based; details: SNU-398, 72 h

SMILES	IC50 [1]	IC50 [2]	IC50 [3]	IC50 [4]	IC50 [5]	further results
CC[C@@H]1O[C@@](C)(/C=C/C=C/C=C/c2cc(OC)c(C)c(=O)o2)[C@@H](O)[C@]1(C)O						IC50 [6]: > 50 µM
COC[C@@H](C[C@H]1O[C@@](O)([C@H](O)[C@@H]2C[C@H](OC)[C@@H](O)CC/C=C(C)/C=C/[C@@H](O[C@@H]3O[C@@H](C)[C@H](OC)[C@@H](O)[C@@H]3O)[C@H](C)/C=C(C)/C=C(C)/C=C(/C)C(=O)O2)[C@H](C)[C@@H](O)[C@H]1C)O[C@H]1C[C@](C)(O)[C@@H](O[C@H]2C[C@@H](OC)[C@H](O)[C@@H](C)O2)[C@H](C)O1						IC50 [7]: 0.15 µM
COc1cc(=O)oc(/C=C/C=C/C=C/[C@@H]2O[C@]3(C)[C@@H](OC(C)=O)[C@](C)(O[C@@H]3[C@@H](C)O)[C@H]2O)c1C						IC50 [6]: 0.08 µM
CC(=O)Oc1cc(/C=C/c2ccc(OCCCC[P+](c3ccccc3)(c3ccccc3)c3ccccc3)cc2)cc(OC(C)=O)c1						inhibition [8]: > 40%
COc1cc(/C=C/C=C/C=C/[C@]2(C)O[C@]3(C)[C@@H](O)[C@](C)(O[C@@H]3C)[C@H]2O)oc(=O)c1	> 40 µM	> 40 µM	> 40 µM	> 40 µM	> 40 µM	
CN1C(=O)C(Cc2ccc3ccccc3c2)N=C(c2ccc(O)cc2)c2cc(Cl)ccc21 (configuration not stated)						EC50 [9]: 3.1 µM
COc1cc(=O)oc(/C=C/C=C/C=C/[C@]2(C)O[C@]3(C)[C@@H](O)[C@](C)(O[C@@H]3C)[C@H]2O)c1C						IC50 [6]: > 5.43 µM
CCC(=O)[C@@H](C)[C@H](OC(C)=O)[C@@H](C)/C=C/C(=O)O[C@@H]1[C@H](C)[C@H](CC[C@H](/C=C/C=C/C[C@@H](C)[C@H](OC(C)=O)[C@@]2(C)OC=C(C)C2=O)CC)O[C@]2(CC[C@H](C)[C@H](C[C@@H](C)OC(C)=O)O2)[C@H]1C						IC50 [10]: 3.1 µM; IC50 [11]: 0.9 µM
COC[C@@H](C[C@H]1O[C@@](O)([C@H](O)[C@@H]2C[C@H](OC)[C@@H](O)CC/C=C(C)/C=C/[C@@H](O[C@@H]3O[C@@H](C)[C@H](OC)[C@@H](O)[C@@H]3O)[C@H](C)/C=C/C=C(C)/C=C(\C)C(=O)O2)[C@H](C)[C@@H](O)[C@H]1C)O[C@H]1C[C@](C)(O)[C@@H](O[C@H]2C[C@@H](OC)[C@H](O)[C@@H](C)O2)[C@H](C)O1						IC50 [7]: 0.11 µM
COc1ccc(/C=C/c2cc(OC)cc(OCCCC[P+](c3ccccc3)(c3ccccc3)c3ccccc3)c2)cc1						inhibition [8]: > 40%
CC[C@](C)(NC(=O)[C@H](CC(C)C)NC(=O)[C@H](C)NC(=O)C(C)(C)NC(=O)[C@@H]1CCCCN1C(=O)C(C)(C)NC(=O)C(C)(C)NC(=O)CNC(=O)CCNC(=O)[C@H](CC(C)C)NC(=O)C(C)(C)NC(=O)[C@](C)(CC)NC(=O)[C@@H]1CCCCN1C(=O)C(C)(C)NC(=O)[C@@H]1CCCCN1C(C)=O)C(=O)N[C@@H](CC(C)C)C[N+]1=C2CCCN2CCC1 [EFRAPEPTIN G] (Ac-[Pip][Aib][Pip][Iva][Aib]L[βAla]G[Aib][Aib][Pip][Aib]AL[Iva]-X4)						IC50 [12]: 0.009 µM
COC[C@H](O)C[C@H]1O[C@@](O)(C[C@@H]2C[C@H](OC)CCC/C=C(C)/C=C/[C@@H](O[C@@H]3O[C@@H](C)[C@@H](OC)[C@@H](O)[C@@H]3O)[C@H](C)/C=C(C)/C=C(C)/C=C(\C)C(=O)O2)[C@H](C)[C@@H](O)[C@H]1C						IC50 [7]: > 1 µM

Second part, led by results:

IC50 [1]	IC50 [2]	IC50 [3]	IC50 [4]	IC50 [5]	SMILES	further results
> 40 µM	> 40 µM	> 40 µM	> 40 µM	> 40 µM	CC[C@H]1O[C@@]2(C)[C@H](O)[C@@]1(C)O[C@@H](CC(O)/C=C/C=C/c1oc(=O)cc(OC)c1C)[C@@H]2O (some centres not stated)	
> 40 µM	> 40 µM	> 40 µM	> 40 µM	> 40 µM	CC[C@H]1O[C@@]2(C)[C@H](OC(C)=O)[C@@]1(C)O[C@@H](C(O)C(O)/C=C/C=C/c1oc(=O)cc(OC)c1C)[C@@H]2O (some centres not stated)	
> 40 µM	> 40 µM	> 40 µM	> 40 µM	> 40 µM	CC[C@H]1O[C@@]2(C)[C@H](OC(C)=O)[C@@]1(C)O[C@@H](CC(O)/C=C/C=C/c1oc(=O)cc(OC)c1C)[C@@H]2O (some centres not stated)	
> 40 µM	> 40 µM	> 40 µM	> 40 µM	> 40 µM	CC[C@H]1O[C@@]2(C)[C@H](OC(C)=O)[C@@]1(C)O[C@@H](/C=C/C=C/C=C/c1cc(OC)cc(=O)o1)[C@@H]2O	
